From PubChem BioAssay AID330 (DTP/NCI, 2004)
Where “and” joins values, the source holds several entries; their conditions need not be identical. Equal values may be shown once. Inconclusive results and toxic doses are left out.

System: P388 leukemia ip, CD2F1 mice, survival T/C
Test: NCI In Vivo Anticancer Drug Screen. Data for tumor model P388 Leukemia (intraperitoneal) in CD2F1 (CDF1) mice
Conditions: endpoint: median survival time, higher = longer survival
Procedure, shortened: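 Mice carrying the transplanted tumor received test compound or vehicle. Survival was recorded in each group, and the value is the treated-group measurement divided by that of the vehicle-treated control group.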

[1] = dose: 120.0 mg/kg/injection, schedule: Q01DX005 (ip), vehicle: saline with Tween-80
[2] = dose: 60.0 mg/kg/injection, schedule: Q01DX005 (ip), vehicle: Klucel (hydroxypropylcellulose) (HPC)
[3] = dose: 120.0 mg/kg/injection, schedule: Q01DX005 (ip), vehicle: Klucel (hydroxypropylcellulose) (HPC)
[4] = dose: 240.0 mg/kg/injection, schedule: Q01DX005 (ip), vehicle: Klucel (hydroxypropylcellulose) (HPC)
[5] = dose: 100.0 mg/kg/injection, schedule: Q01DX009 (ip), vehicle: saline with Tween-80
[6] = dose: 200.0 mg/kg/injection, schedule: Q01DX009 (ip), vehicle: saline with Tween-80
[7] = dose: 60.0 mg/kg/injection, schedule: Q01DX005 (ip), vehicle: saline with Tween-80
[8] = dose: 240.0 mg/kg/injection, schedule: Q01DX005 (ip), vehicle: saline with Tween-80
[9] = dose: 50.0 mg/kg/injection, schedule: Q01DX005 (ip), vehicle: Klucel (hydroxypropylcellulose) (HPC)
[10] = dose: 100.0 mg/kg/injection, schedule: Q01DX005 (ip), vehicle: Klucel (hydroxypropylcellulose) (HPC)
[11] = dose: 200.0 mg/kg/injection, schedule: Q01DX005 (ip), vehicle: Klucel (hydroxypropylcellulose) (HPC)
[12] = dose: 25.0 mg/kg/injection, schedule: Q01DX009 (ip), vehicle: saline

## CN(C=O)CCN(C)C=O
dose: 100.0 mg/kg/injection, schedule: Q04DX002 (ip), vehicle: saline
  T/C: 96 % of control
dose: 200.0 mg/kg/injection, schedule: Q04DX002 (ip), vehicle: saline
  T/C: 99 % of control
dose: 400.0 mg/kg/injection, schedule: Q04DX002 (ip), vehicle: saline
  T/C: 104 % of control

## N=C(N)N=Nc1ccc(O)cc1
[1]
  T/C: 119 % of control

## CN(NC1OC(=O)c2ccccc21)c1ccc(C(F)(F)F)cc1[N+](=O)[O-] (stereo unspecified)
[2]
  T/C: 95 % of control
[3]
  T/C: 98 % of control
[4]
  T/C: 100 % of control

## COc1ccc(C(=O)OC2(C)CC(C)(C)N=N2)cc1 (stereo unspecified)
dose: 12.5 mg/kg/injection, schedule: Q01DX009 (ip), vehicle: other
  T/C: 105 % of control
dose: 25.0 mg/kg/injection, schedule: Q01DX009 (ip), vehicle: other
  T/C: 108 % of control
dose: 50.0 mg/kg/injection, schedule: Q01DX009 (ip), vehicle: other
  T/C: 108 % of control
dose: 100.0 mg/kg/injection, schedule: Q01DX009 (ip), vehicle: other
  T/C: 108 % of control
dose: 200.0 mg/kg/injection, schedule: Q01DX009 (ip), vehicle: other
  T/C: 108 % of control

## O=C1Nc2ccccc2/C1=N/N1C(=O)CSC1=S
dose: 0.93 mg/kg/injection, schedule: Q01DX005 (ip), vehicle: Klucel (hydroxypropylcellulose) (HPC)
  T/C: 97 % of control
dose: 1.87 mg/kg/injection, schedule: Q01DX005 (ip), vehicle: Klucel (hydroxypropylcellulose) (HPC)
  T/C: 94 % of control
dose: 3.75 mg/kg/injection, schedule: Q01DX005 (ip), vehicle: Klucel (hydroxypropylcellulose) (HPC)
  T/C: 88 % of control

## O=c1[nH]c2c(ccc3c[n+]([O-])ccc32)c2c1CCC2
dose: 50.0 mg/kg/injection, schedule: Q01DX009 (ip), vehicle: saline with Tween-80
  T/C: 88 % of control
[5]
  T/C: 100 % of control
[6]
  T/C: 108 % of control

## N#C/C(=C\c1ccncc1)c1ccccc1
dose: 3.13 mg/kg/injection, schedule: Q01DX009 (ip), vehicle: saline with Tween-80
  T/C: 90 % of control
dose: 6.25 mg/kg/injection, schedule: Q01DX009 (ip), vehicle: saline with Tween-80
  T/C: 95 % of control
dose: 12.5 mg/kg/injection, schedule: Q01DX009 (ip), vehicle: saline with Tween-80
  T/C: 92 % of control
dose: 25.0 mg/kg/injection, schedule: Q01DX009 (ip), vehicle: saline with Tween-80
  T/C: 109 % of control

## CC1(C)N=C(N)N=C(N)N1c1ccc(OCCNC(=O)Nc2ccc(S(=O)(=O)F)cc2)c(Cl)c1
dose: 50.0 mg/kg/injection, schedule: Q04DX003 (ip), vehicle: saline
  T/C: 120 % of control

## N=C(N=C(C(Cl)(Cl)Cl)C(Cl)(Cl)Cl)N=C(C(Cl)(Cl)Cl)C(Cl)(Cl)Cl
[7]
  T/C: 100 % of control
[1]
  T/C: 99 % of control
[8]
  T/C: 104 % of control

## N#Cc1cnc2nc1NCCCCCCC2
dose: 25.0 mg/kg/injection, schedule: Q04DX003 (ip), vehicle: saline with Tween-80
  T/C: 105 % of control
dose: 50.0 mg/kg/injection, schedule: Q04DX003 (ip), vehicle: saline with Tween-80
  T/C: 98 % of control
dose: 100.0 mg/kg/injection, schedule: Q04DX003 (ip), vehicle: saline with Tween-80
  T/C: 100 % of control

## CC(C)=CCc1cc(C2COc3cc4c(c(O)c3C2=O)C=CC(C)(C)O4)c(O)cc1O (stereo unspecified)
dose: 8.0 mg/kg/injection, schedule: Q01DX009 (ip), vehicle: Klucel (hydroxypropylcellulose) (HPC)
  T/C: 98 % of control
dose: 16.0 mg/kg/injection, schedule: Q01DX009 (ip), vehicle: Klucel (hydroxypropylcellulose) (HPC)
  T/C: 101 % of control
dose: 32.0 mg/kg/injection, schedule: Q01DX009 (ip), vehicle: Klucel (hydroxypropylcellulose) (HPC)
  T/C: 100 % of control
dose: 64.0 mg/kg/injection, schedule: Q01DX009 (ip), vehicle: Klucel (hydroxypropylcellulose) (HPC)
  T/C: 98 % of control

## CC(C)(C)N1OC2(c3ccccc3)OC3N(C(C)(C)C)OC4(c5ccccc5)OC1C2(c1ccccc1)C34c1ccccc1 (stereo unspecified)
[7]
  T/C: 111 % of control
[1]
  T/C: 87 % of control
[8]
  T/C: 86 % of control

## CC1(c2ccccc2)NN1
dose: 100.0 mg/kg/injection, schedule: Q04DX002 (ip), vehicle: saline with Tween-80
  T/C: 94 % of control
dose: 200.0 mg/kg/injection, schedule: Q04DX002 (ip), vehicle: saline with Tween-80
  T/C: 95 % of control
dose: 400.0 mg/kg/injection, schedule: Q04DX002 (ip), vehicle: saline with Tween-80
  T/C: 94 % of control

## O/N=C1C=C/C(=C/c2ccccc2)c2ccccc2/1
[9]
  T/C: 96 % of control
[10]
  T/C: 92 % of control
[11]
  T/C: 92 % of control

## CC(=O)/C=C/c1ccc(OC(=O)/C=C/c2ccccc2)cc1
dose: 50.0 mg/kg/injection, schedule: Q01DX005 (ip), vehicle: saline with Tween-80
  T/C: 101 % of control
dose: 100.0 mg/kg/injection, schedule: Q01DX005 (ip), vehicle: saline with Tween-80
  T/C: 100 % of control
dose: 200.0 mg/kg/injection, schedule: Q01DX005 (ip), vehicle: saline with Tween-80
  T/C: 98 % of control

## CSc1nc(N)c(NS(=O)(=O)c2ccccc2[N+](=O)[O-])c(=O)[nH]1
[9]
  T/C: 100 % of control
[10]
  T/C: 90 % of control
[11]
  T/C: 90 % of control

## Nc1ncnc2c1ncn2C(C=O)OC(C=O)CO (stereo unspecified)
dose: 4.4 mg/kg/injection, schedule: Q04DX003 (ip), vehicle: saline
  T/C: 118 % of control
dose: 6.6 mg/kg/injection, schedule: Q04DX003 (ip), vehicle: saline
  T/C: 118 % of control
dose: 9.38 mg/kg/injection, schedule: Q04DX003 (ip), vehicle: saline
  T/C: 177 % of control
dose: 12.5 mg/kg/injection, schedule: Q01DX009 (ip), vehicle: saline
  T/C: 150 % of control
[12]
  T/C: 186 % of control
dose: 37.5 mg/kg/injection, schedule: Q04DX003 (ip), vehicle: saline
  T/C: 118 % of control
dose: 75.0 mg/kg/injection, schedule: Q04DX003 (ip), vehicle: saline
  T/C: 209 % of control

## COCCn1c(=O)[nH]c(=O)c2c(Nc3ccccc3)snc21
[12]
  T/C: 100 % of control and 93 % of control
dose: 50.0 mg/kg/injection, schedule: Q01DX009 (ip), vehicle: saline
  T/C: 98 % of control and 99 % of control and 89 % of control
[5]
  T/C: 95 % of control
dose: 100.0 mg/kg/injection, schedule: Q01DX009 (ip), vehicle: saline
  T/C: 98 % of control and 112 % of control and 97 % of control
[6]
  T/C: 100 % of control
dose: 200.0 mg/kg/injection, schedule: Q01DX009 (ip), vehicle: saline
  T/C: 99 % of control

## C1=C[N-]c2c3c(ccc2=C1)=CC=C[N-]3.C1=C[N-]c2c3c(ccc2=C1)=CC=C[N-]3.C1=C[N-]c2c3c(ccc2=C1)=CC=C[N-]3.[Co+3].[O-][Cl+3]([O-])([O-])O
dose: 7.5 mg/kg/injection, schedule: Q01DX005 (ip), vehicle: saline with Tween-80
  T/C: 98 % of control
dose: 15.0 mg/kg/injection, schedule: Q01DX005 (ip), vehicle: saline with Tween-80
  T/C: 98 % of control
dose: 30.0 mg/kg/injection, schedule: Q01DX005 (ip), vehicle: saline with Tween-80
  T/C: 104 % of control

## Fc1cccc(Cl)c1C(Nc1nccs1)Nc1nccs1
[2]
  T/C: 107 % of control
[3]
  T/C: 103 % of control
[4]
  T/C: 104 % of control

## Nc1nnc(-c2ccccc2)s1
dose: 12.5 mg/kg/injection, schedule: Q01DX009 (ip), vehicle: Klucel (hydroxypropylcellulose) (HPC)
  T/C: 114 % of control
dose: 25.0 mg/kg/injection, schedule: Q01DX009 (ip), vehicle: Klucel (hydroxypropylcellulose) (HPC)
  T/C: 107 % of control
dose: 50.0 mg/kg/injection, schedule: Q01DX008 (ip), vehicle: Klucel (hydroxypropylcellulose) (HPC)
  T/C: 109 % of control
dose: 50.0 mg/kg/injection, schedule: Q01DX009 (ip), vehicle: Klucel (hydroxypropylcellulose) (HPC)
  T/C: 114 % of control
dose: 100.0 mg/kg/injection, schedule: Q01DX008 (ip), vehicle: Klucel (hydroxypropylcellulose) (HPC)
  T/C: 109 % of control
dose: 200.0 mg/kg/injection, schedule: Q01DX008 (ip), vehicle: Klucel (hydroxypropylcellulose) (HPC)
  T/C: 114 % of control

## COc1ccc2c(C)cc(N/N=C/c3cccc(C)n3)nc2c1
[9]
  T/C: 98 % of control and 104 % of control and 93 % of control
[10]
  T/C: 105 % of control and 109 % of control and 110 % of control
[11]
  T/C: 104 % of control and 116 % of control and 124 % of control
